In test [1] the target is T1, human NTPDase2 (Homo sapiens, UniProt Q9Y5L3).
T1 construct: expressed in transfected cells; host or cells: COS-7 cells (membrane preparation)
T1 sequence (Q9Y5L3 1-495): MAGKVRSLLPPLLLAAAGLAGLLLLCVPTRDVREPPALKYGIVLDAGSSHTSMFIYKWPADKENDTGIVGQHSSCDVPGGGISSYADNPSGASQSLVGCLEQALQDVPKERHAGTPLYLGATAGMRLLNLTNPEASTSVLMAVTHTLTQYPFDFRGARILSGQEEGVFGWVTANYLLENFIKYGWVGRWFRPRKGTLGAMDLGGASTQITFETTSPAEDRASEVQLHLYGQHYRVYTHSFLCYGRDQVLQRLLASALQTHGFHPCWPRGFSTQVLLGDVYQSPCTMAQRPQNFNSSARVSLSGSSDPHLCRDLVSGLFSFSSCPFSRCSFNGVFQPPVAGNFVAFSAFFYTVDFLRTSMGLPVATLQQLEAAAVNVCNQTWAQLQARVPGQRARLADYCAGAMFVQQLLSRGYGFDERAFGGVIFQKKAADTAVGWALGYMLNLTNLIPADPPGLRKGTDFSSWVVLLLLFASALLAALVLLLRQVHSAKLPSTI
Kind of test: Malachite green assay, human NTPDase2. The class given is biochemical. The settings on record: 2 μM compound; 100 µM ATP; COS-7 membrane preparation; read-out: % inhibition at 2 μM concentration, NTPDase2. Put shortly: (§1)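 COS-7 membranes expressing each NTPDase were preincubated with compound for 5 min at 37 °C, pH 7.4 HEPES buffer with 2 mM CaCl2/1 mM MgCl2. ATP was 50 µM for NTPDase1 and 100 µM for -2, -3, -8; reaction ran 15 min at 37 °C. Released phosphate read by malachite green at 600 nm; screen at 2 µM, IC50 over 0.03–30 µM in 2% DMSO.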

The target of test [2] is T2, human NTPDase8 (Homo sapiens, UniProt Q5MY95).
T2 construct: expressed in transfected cells; host or cells: COS-7 cells (membrane preparation)
T2 sequence (Q5MY95 1-495): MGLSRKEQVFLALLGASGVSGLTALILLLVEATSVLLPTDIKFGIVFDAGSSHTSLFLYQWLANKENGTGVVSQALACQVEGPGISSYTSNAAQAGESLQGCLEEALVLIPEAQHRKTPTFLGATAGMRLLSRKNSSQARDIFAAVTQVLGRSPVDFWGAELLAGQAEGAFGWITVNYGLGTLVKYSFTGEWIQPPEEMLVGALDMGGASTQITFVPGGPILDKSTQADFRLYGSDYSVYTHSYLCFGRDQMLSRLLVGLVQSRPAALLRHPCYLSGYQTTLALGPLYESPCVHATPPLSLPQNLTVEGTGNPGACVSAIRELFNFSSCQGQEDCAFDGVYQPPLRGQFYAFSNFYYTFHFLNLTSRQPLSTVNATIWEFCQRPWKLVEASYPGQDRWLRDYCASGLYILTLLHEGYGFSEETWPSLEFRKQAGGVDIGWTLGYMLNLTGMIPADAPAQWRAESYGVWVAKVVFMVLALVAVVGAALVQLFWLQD
Put plainly: Malachite green assay, human NTPDase8. The class given is biochemical. The settings on record: 2 μM compound; 100 µM ATP; COS-7 membrane preparation; read-out: % inhibition at 2 μM concentration, NTPDase8. Put shortly: as §1

In test [3] the test system is rat CD73. On the set-up: method as in Baqi et al., 2010. Particulars: ref Baqi et al., 2010; cited from earlier work.

Regarding `Nc1c(S(=O)(=O)O)cc(Nc2cccc3ccccc23)c2c1C(=O)c1ccccc1C2=O` [Compound 15], the inhibition at 2 µM in test [1] turned out to be 31%; in test [2], 9%. Further, in test [3], the half-maximal inhibitory concentration (IC50) is 530 nM.

Values taken from paper PMC7481482, “Development of Anthraquinone Derivatives as Ectonucleoside Triphosphate Diphosphohydrolase (NTPDase) Inhibitors With Selectivity for NTPDase2 and NTPDase3” (Frontiers in Pharmacology, 2020).
